Experimental data reported in patent publication US10596145B2, “Heterocyclic flavone derivatives, compositions, and methods related thereto” (Emory University, priority 2012, dated 2020).
“Also recorded” adds a separate entry of the source.

Tests used:
Akt = assay: Downstream Akt activation in mouse brain (p-Akt immunoblotting, p-Akt 473 ELISA); type: in vivo; settings: 1 mg/kg oral
Protocol: PathScan Phospho-Akt1 (Ser473) Sandwich ELISA kit was purchased from Cell Signaling (Cat. #7160). 100 μl sample in sample diluent (supplied in the kit) was added to each well and incubated overnight at 4° C. After 4× wash with 200 ul wash buffer (supplied in the kit), 100 ul/well detection antibody was added and incubated for 1 hour at 37° C. After 4× wash, 100 μl of HRP-linked secondary antibody (supplied in the kit) was added and incubated for 30 minutes at 37° C. After a final wash, 100 μl of TMB substrate was added to each well and incubated for 10 minutes at 37° C. The reaction was stopped by adding 100 μl/well stop solution. Record the values of each well using microplate reader at 450 nm and 650 nm. The optical density was determined by the subtraction of the reading at 650 nm from the reading s at 450 nm.
(§1) Male C57BL/6 mice aged of two months were administrated orally with 4′-DMA-7,8-DHF derivatives at a single dose of 1 mg/kg for 4 h. The control mice were injected with saline. The mice were sacrificed and brains were homogenated and ultracentrafuged. The supernatant (40 μg) was employed for SDS-PAGE and immunoblotting analysis with indicated antibodies, respectively. Male C57BL/6 mice aged of two months were administrated orally with compound (i) or (m) at the dose of 5 mg/kg/day each and compound o or p at the dose of 2.5 mg/kg/day each for 21 days. BrdU (100 mg/kg) was i. p. injected two hours before the TrkB agonist treated animals were sacrificed and the hippocampal section lysates were analyzed by immunoblotting with p-TrkB and total TrkB antibodies, p-AKT ELISA.

TrkA = target: T1, TrkA (Mus musculus, UniProt Q3UFB7); assay: TrkA activation in mouse brain (anti-p-TrkA 794 immunoblotting); type: in vivo; settings: 5 mg/kg/day oral, chronically treated mice
T1 construct: from tissue; host or cells: mouse brain lysates of chronically treated C57BL/6J mice
T1 sequence (Q3UFB7 34-799): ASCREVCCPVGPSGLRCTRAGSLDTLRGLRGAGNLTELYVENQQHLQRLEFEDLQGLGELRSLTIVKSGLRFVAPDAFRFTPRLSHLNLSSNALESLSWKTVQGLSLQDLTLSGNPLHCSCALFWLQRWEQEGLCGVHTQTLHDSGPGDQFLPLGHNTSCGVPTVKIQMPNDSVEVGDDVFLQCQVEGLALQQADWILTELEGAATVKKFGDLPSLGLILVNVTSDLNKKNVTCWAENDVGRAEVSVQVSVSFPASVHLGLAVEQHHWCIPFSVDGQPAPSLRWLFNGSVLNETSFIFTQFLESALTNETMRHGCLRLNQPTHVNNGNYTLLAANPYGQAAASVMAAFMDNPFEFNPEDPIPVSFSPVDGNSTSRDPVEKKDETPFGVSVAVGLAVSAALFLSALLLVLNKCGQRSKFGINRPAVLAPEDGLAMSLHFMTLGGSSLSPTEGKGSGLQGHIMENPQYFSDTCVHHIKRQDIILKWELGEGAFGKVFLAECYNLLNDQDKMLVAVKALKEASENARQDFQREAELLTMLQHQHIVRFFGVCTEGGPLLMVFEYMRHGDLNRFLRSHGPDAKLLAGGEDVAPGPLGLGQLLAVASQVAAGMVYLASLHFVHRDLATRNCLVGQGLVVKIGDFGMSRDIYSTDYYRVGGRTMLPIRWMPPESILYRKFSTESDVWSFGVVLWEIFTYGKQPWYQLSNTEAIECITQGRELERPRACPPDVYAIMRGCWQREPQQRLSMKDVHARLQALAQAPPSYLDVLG
Protocol: The brain lysates from above chronically treated mice were analyzed by immunoblotting with anti-p-TrkA 794 and p-TrkB 816.
as §1

C57BL/6J mice [1] = assay: Locomotor activity assay; type: in vivo, mouse; settings: 5 mg/kg oral, 21 days, tested at day 22
Protocol: The above drug-treated mice were subjected locomotor activity at day 22. […] Data are presented as mean±SEM.
Locomotor activity was assessed using an automated system (San Diego Instruments, La Jolla, Calif., USA) with photobeams that recorded ambulations (consecutive beam breaks). Drug-treated mice were placed in the locomotor chambers, and their activity was recorded for 2 h with 30 min interval.

TrkB [2] = target: T2, TrkB (Mus musculus, UniProt P15209); assay: TrkB phosphorylation in mouse brain after oral administration (immunoblotting, immunohistochemistry); type: in vivo
T2 construct: from tissue; host or cells: mouse brain (hippocampus, cortex), C57BL/6
T2 sequence (P15209 32-821): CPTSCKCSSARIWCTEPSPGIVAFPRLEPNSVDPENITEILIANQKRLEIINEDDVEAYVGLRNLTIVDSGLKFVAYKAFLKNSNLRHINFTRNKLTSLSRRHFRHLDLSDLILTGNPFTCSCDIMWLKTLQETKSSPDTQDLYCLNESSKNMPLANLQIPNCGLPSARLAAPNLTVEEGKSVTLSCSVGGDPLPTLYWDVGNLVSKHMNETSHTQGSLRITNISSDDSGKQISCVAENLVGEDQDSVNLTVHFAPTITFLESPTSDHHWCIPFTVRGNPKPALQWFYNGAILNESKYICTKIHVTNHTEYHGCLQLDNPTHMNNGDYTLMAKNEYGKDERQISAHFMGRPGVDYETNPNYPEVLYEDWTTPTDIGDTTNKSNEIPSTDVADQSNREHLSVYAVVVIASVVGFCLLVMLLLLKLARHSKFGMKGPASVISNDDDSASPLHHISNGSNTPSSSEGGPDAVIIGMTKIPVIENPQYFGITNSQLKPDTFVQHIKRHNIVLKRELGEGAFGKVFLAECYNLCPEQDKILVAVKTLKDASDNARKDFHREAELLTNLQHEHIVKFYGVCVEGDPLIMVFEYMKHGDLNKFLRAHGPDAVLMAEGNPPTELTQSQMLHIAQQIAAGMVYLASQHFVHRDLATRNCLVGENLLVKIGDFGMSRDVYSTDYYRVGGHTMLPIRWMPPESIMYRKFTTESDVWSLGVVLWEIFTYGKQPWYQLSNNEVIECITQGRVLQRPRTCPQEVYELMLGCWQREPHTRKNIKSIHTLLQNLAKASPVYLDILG
Protocol: One mg/kg of various indicated compounds were orally administrated into C57 BL/6J mice and TrkB phosphorylation and its downstream signaling cascades including Akt and MAPK in the hippocampus of mouse brain were analyzed by immunoblotting at 4 h. […] The downstream p-Akt and p-MAPK activity coupled to the TrkB activation patterns.
Time course assay with 4′-dimethylamino-7,8-imidazole flavone. One mg/kg of compound (i) and compound (m) were orally administrated into C57 BL/6J mice and TrkB phosphorylation and its downstream signaling cascades including Akt in mouse brain were analyzed by immunoblotting at various time points. TrkB activation by compound m peaked at 4 h, whereas the maximal TrkB activation by compound i in mouse brain occurred at 1-2 h. Arrows indicate the p-TrkB in mature glycosylated or unglycosylated forms (top panels). The downstream Akt activation pattern tightly correlated with the upstream TrkB activation.
as §1
Brain tissues were fixed in 4% paraformaldehyde overnight followed by paraffin embedding. Sections of 6 μm were cut. For immunohistochemical staining, brain sections were deparaffinized in xylene and rehydrated in graded alcohols. Endogenous peroxidase activity was blocked by 3% hydrogen peroxide for 5 min and all slides were boiled in 10 mM sodium citrate buffer (pH 6.0) for 10 min. Phosphorylated TrkB 816 and TrkB were detected using specific antibodies. Paraffin section were deparaffinized in xylene and rehydrated gradient ethanol solution. Samples were boiled in 10 mM sodium citrate buffer for 20 min for antigen retrieval purpose. Brain sections were incubated with anti-TrkB (BD Biosciences, San Jose, Calif.) 1:50, p-TrkB 1:300 dilution. Secondary antibody was applied using anti-rabbit-Alexa 594 (red), anti-mouse-fluorescein isothiocyanate (FITC) (green). DAPI (blue) was used for nuclear staining.

C57BL/6J mice [3] = assay: Forced swim test; type: in vivo, mouse; settings: 5 mg/kg oral once a day, 3 weeks
Protocol: Male C57BL/6J mice (6 mice/group) were orally administrated by gavage with 5 mg/kg compound (m) or compound (i) and vehicle solvent saline for 21 days and subjected to a forced swim test (6 min, immobility recorded in the last 4 min). Data are presented as mean±SEM. (n=6, ***P<0.0001 vs vehicle, Student t-test).
Forced swim test. Male C57BL/6J mice (8 mice/group) were orally administrated by gavage with 2.5 mg/kg compound o or compound p and vehicle solvent saline for 21 days and subjected to a forced swim test (6 min, immobility recorded in the last 4 min). […] Data are presented as mean±SEM.
Adult male mice (2-3 months old) were randomly submitted to a forced swim test without a preswim. Test compounds were orally administrated by gavage for 21 days. The mice were allowed to adapt to the test room for 2 days. The mice were placed in a clear glass cylinder with a diameter of 16 cm, half-filled with clear water at 24° C.

TrkB [4] = target: T3, TrkB (Rattus norvegicus, UniProt Q63604); assay: TrkB activation in primary cortical neurons (immunoblotting); type: cell-based; settings: 500 nM, 15 min
T3 construct: endogenous in cells; host or cells: primary cortical neurons from E17 rat embryos
T3 sequence (Q63604 32-821): as the sequence (P15209 32-821) above, with T3M, S9T, A10T, V32I, R63K, S84G, M153T, L185I, S394T, S770N counted along it
Protocol: Primary cortical cultures from E17 rat embryos were treated with 500 nM of various synthetic flavone derivatives for 15 min. The cell lysates (20 μg) were analyzed by the immunoblotting.
Rat primary neurons were treated with 500 nM various indicated compounds from 15 min. The neuronal lysates ([…]) were analyzed with various antibodies.
500 nM of different synthetic compounds were added to DIV 7 neurons for 15 min. The cell lysates were analyzed by immunoblotting with indicated p-Akt 473 antibodies.
Replacing the 3′-dimethylamino group or 4′-morpholino group was tested for TrkB agonistic activity. To compare the TrkB activation by these compounds, primary cortical cultures were prepared and treated them with 500 nM of various compounds for 15 min and collected the cell lysates. […] The p-Akt ELISA analysis results were similar to the TrkB activation pattern (FIG. 2B, lower panel).

TrkA activation in mouse brain (TrkA): not TrkA | time at which TrkB activation fades away (TrkB [2]; 1 mg/kg oral, time course): 16 h | time of peak TrkB activation in mouse brain (TrkB [2]; 1 mg/kg oral, time course): 4 h
Compound: CN(C)c1ccc(-c2cc(=O)c3ccc4nc[nH]c4c3o2)cc1 [compound m, 8-(4-(dimethylamino)phenyl)chromeno[7,8-d]imidazol-6(1H)-one]
downstream p-Akt and p-MAPK signalings (Akt; at 4 h): strongly activated | p-Akt signal elevation compared to the control at peak (Akt; at 8 h): about 250% | time of peak p-Akt activation (p-Akt ELISA) (Akt; time course): 8 h | locomotor activity (C57BL/6J mice [1]): highly augmented the locomotor activity; also recorded: substantially augmented locomoter activity; also recorded: significantly increased the locomotor activity | TrkB activation in mouse brain (TrkB [2]; 1 mg/kg oral, hippocampus, at 4 h): robustly activated TrkB; also recorded: strongest TrkB stimulatory effect | TrkB phosphorylation after chronic treatment (TrkB [2]; 5 mg/kg/day oral, 3 weeks, cortex and hippocampus): escalated TrkB phosphorylation; also recorded: stronger effect than compound i | immobility in forced swim test (C57BL/6J mice [3]): decreased the immobility in FST; also recorded: significantly reduced the immobility; also recorded: more robust than that of compound i | TrkB activation (p-TrkB immunoblotting) (TrkB [4]): stronger effect in triggering TrkB activation than compound 4′-DMA-7,8-DHF | TrkB activation (p-TrkB immunoblotting) (TrkB [4]; listed as 4′-Dimethylamino-7,8-imidazole flavone): stronger TrkB stimulatory activity than compound a
